This passage reports Emax and EC50 results from US20250074901A1, “NOVEL HETEROARYL COMPOUNDS” (ICAGEN, LLC, priority 2021, published 2025).

pEC50: −log10 of the molar value.

The term Emax denotes the greatest response seen or fitted, relative to the assay's reference. For orientation: pEC50 means the EC50 on a negative log10 scale, so that one unit is a factor of ten. High values mean a small EC50, low ones a large EC50.

For the assay, the target named is T1, Kv7.2 (Homo sapiens, UniProt O43526).
T1 construct: expressed in transfected cells
Put plainly: Activation of Kv7.2 (in vitro assay, concentration response curve). In kind it is cell-based. The conditions noted are these: for Emax: Kv7.2 activation max %; for pEC50: activation of Kv7.2. How it is done:
The term “EC50” in this application is defined as: the agonistic effect of a compound can be determined by testing the compound in an in vitro assay as described herein, whereby the effect of the compound is measured across a range of compound concentrations. The resulting data is plotted as a concentration response curve, which typically follows a sigmoidal function, whereby the concentration of the compound is plotted on the x axis and the response (agonistic effect) is plotted on the y axis. The term “EC50” is the “half maximal effective concentration” and denotes the concentration of a particular compound required to obtain 50% of the maximum response (Emax) which is observed for that compound in the given in vitro assay.

Turning to `O=C(NCc1ccnc(OC(F)F)c1)N[C@H]1CC[C@H](C(F)(F)F)C1` (single isomer, unassigned) [Example 207], the Emax is 58% and the pEC50 was 6.64.
On the same counts, the results for `O=C(Nc1cccc(Cl)c1)NC(CO)c1ccnc(OC(F)F)c1` (single isomer, unassigned) [Example 263] are 73% and 6.51.
Regarding `O=C(NC(CO)c1ccnc(OC(F)F)c1)N[C@@H]1COc2ccccc2C1` (stereo in doubt) [Example 278, rel-1-[1-[2-(difluoromethoxy)pyridin-4-yl]-2-hydroxyethyl]-3-[(3S)-3,4-dihydro-2H-chromen-3-yl]urea], the Emax was found to be 52% and the pEC50 is 6.37.
For `O=C(NCc1ccnc(-n2cccn2)c1)N[C@@H]1CCOc2ccccc21` [Example 1, 1-[(4R)-3,4-dihydro-2H-chromen-4-yl]-3-[(2-pyrazol-1-ylpyridin-4-yl)methyl]urea], the Emax is 54% and the pEC50 was 5.62.
The matching figures for `O=C(NCc1ccnc(-n2cccn2)c1)NC1CCCC1` [Example 2, 1-cyclopentyl-3-[(2-pyrazol-1-ylpyridin-4-yl)methyl]urea]: 74% and 5.36.
`O=C(NCc1ccnc(-n2cccn2)c1)Nc1cccc(Cl)c1` [Example 4, 1-(3-chlorophenyl)-3-[(2-pyrazol-1-ylpyridin-4-yl)methyl]urea] gave an Emax of 60% and a pEC50 of 6.37.
On the same counts, the results for `CC1CC(C)(C)CCC1NC(=O)NCc1ccnc(C#N)c1` (stereo not drawn) [Example 5, 1-[(2-cyanopyridin-4-yl)methyl]-3-(2,4,4-trimethylcyclohexyl)urea] are 60% and 5.43.
`O=C(NCc1ccnc(-n2cccn2)c1)NC12CC(C(F)(F)F)(C1)C2` [Example 6, 1-[(2-pyrazol-1-ylpyridin-4-yl)methyl]-3-[3-(trifluoromethyl)-1-bicyclo[1.1.1]pentanyl]urea] had an Emax of 58% and a pEC50 of 5.94.
`O=C(NCc1ccnc(-n2ccnc2)c1)NC1CCCC(C2CC2)C1` (stereo not drawn) [Example 8, 1-(3-cyclopropylcyclohexyl)-3-[(2-imidazol-1-ylpyridin-4-yl)methyl]urea]: the Emax was 52% and the pEC50 is 5.82.
The matching figures for `CC1CC(C)(C)CCC1NC(=O)NCc1ccnc(-n2ccnc2)c1` (stereo not drawn) [Example 9, 1-[(2-imidazol-1-ylpyridin-4-yl)methyl]-3-(2,4,4-trimethylcyclohexyl)urea]: 53% and 6.15.
Regarding `O=C(NCCC1=CCCCC1)NCc1ccnc(-n2cccn2)c1` [Example 10, 1-[2-(cyclohexen-1-yl)ethyl]-3-[(2-pyrazol-1-ylpyridin-4-yl)methyl]urea], the Emax is 54% and the pEC50 is 5.86.
For the molecule `O=C(NCc1ccnc(OC(F)F)c1)NCC1CCC1` [Example 13, 1-(cyclobutylmethyl)-3-[[2-(difluoromethoxy)pyridin-4-yl]methyl]urea], the Emax was determined as 56% and the pEC50 is 6.48.
On the same counts, the results for `O=C(NCc1ccnc(-n2cccn2)c1)N[C@H]1C[C@@H]2CC[C@H]1C2` [Example 15, 1-[(1S,2S,4R)-2-bicyclo[2.2.1]heptanyl]-3-[(2-pyrazol-1-ylpyridin-4-yl)methyl]urea] are 78% and 6.42.
`O=C(NCc1ccnc(-n2cccn2)c1)N[C@@H]1C[C@H]2CC[C@@H]1C2` [Example 16, 1-[(1R,2R,4S)-2-bicyclo[2.2.1]heptanyl]-3-[(2-pyrazol-1-ylpyridin-4-yl)methyl]urea] had an Emax of 73% and a pEC50 of 6.41.
On the same counts, the results for `CC(NC(=O)NCc1ccnc(OC(F)F)c1)C1CCC1` (stereo not drawn) [Example 17, 1-(1-cyclobutylethyl)-3-[[2-(difluoromethoxy)pyridin-4-yl]methyl]urea] are 51% and 6.29.
On to `CC1(C)CCC(NC(=O)NCc2ccnc(OC3COC3)c2)CC1` [Example 18, 1-(4,4-dimethylcyclohexyl)-3-[[2-(oxetan-3-yloxy)pyridin-4-yl]methyl]urea], for which the Emax was 71% and the pEC50 was 6.57.
Regarding `O=C(NCc1ccnc(OC(F)F)c1)NC1CCCC1` [Example 20, 1-cyclopentyl-3-[[2-(difluoromethoxy)pyridin-4-yl]methyl]urea], the Emax turned out to be 57% and the pEC50 was 6.41.
Consider `O=C(NCc1ccnc(OCC(F)(F)F)c1)NCC1CCC1` [Example 21, 1-(cyclobutylmethyl)-3-[[2-(2,2,2-trifluoroethoxy)pyridin-4-yl]methyl]urea], for which the Emax was 52% and the pEC50 is 6.72.
Molecule `O=C(NCc1ccnc(OC(F)F)c1)Nc1cccc(Cl)c1` [Example 22, 1-(3-chlorophenyl)-3-[[2-(difluoromethoxy)pyridin-4-yl]methyl]urea] gave an Emax of 41% and a pEC50 of 7.52.
`O=C(NCc1ccnc(OC(F)F)c1)N[C@@H]1CCOc2ccccc21` [Example 23, 1-[[2-(difluoromethoxy)pyridin-4-yl]methyl]-3-[(4R)-3,4-dihydro-2H-chromen-4-yl]urea] gave an Emax of 52% and a pEC50 of 6.89.
On the same counts, the results for `CC(NC(=O)NCc1ccnc(OC(F)F)c1)C1CC2CCC1C2` (stereo not drawn) [Example 24, 1-[1-(2-bicyclo[2.2.1]heptanyl)ethyl]-3-[[2-(difluoromethoxy)pyridin-4-yl]methyl]urea] are 76% and 7.70.
The molecule `CC1CCCC(C)C1NC(=O)NCc1ccnc(OC(F)F)c1` (stereo not drawn) [Example 25, 1-[[2-(difluoromethoxy)pyridin-4-yl]methyl]-3-(2,6-dimethylcyclohexyl)urea] gave an Emax of 75% and a pEC50 of 7.52.
In turn, `CC(C)(C)CNC(=O)NCc1ccnc(OC(F)F)c1` [Example 29, 1-[[2-(difluoromethoxy)pyridin-4-yl]methyl]-3-(2,2-dimethylpropyl)urea] had an Emax of 63% and a pEC50 of 6.24.
The matching figures for `O=C(NCc1ccnc(OC(F)F)c1)NCC12CC(C1)C2` [Example 31, 1-(1-bicyclo[1.1.1]pentanylmethyl)-3-[[2-(difluoromethoxy)pyridin-4-yl]methyl]urea]: 57% and 6.38.
On the same counts, the results for `O=C(NCc1ccnc(OC(F)F)c1)NCC12CC(F)(C1)C2` [Example 32, 1-[[2-(difluoromethoxy)pyridin-4-yl]methyl]-3-[(3-fluoro-1-bicyclo[1.1.1]pentanyl)methyl]urea] are 42% and 6.08.
Regarding `CC1(C)CCC(NC(=O)NCc2ccnc(-n3ccnc3)c2)CC1` [Example 37, 1-(4,4-dimethylcyclohexyl)-3-[(2-imidazol-1-ylpyridin-4-yl)methyl]urea], the Emax was determined as 59% and the pEC50 was 5.88.
Consider `COC1(CNC(=O)NCc2ccnc(OC(F)F)c2)CCC1` [Example 38, 1-[[2-(difluoromethoxy)pyridin-4-yl]methyl]-3-[(1-methoxycyclobutyl)methyl]urea], for which the Emax is 73% and the pEC50 is 5.43.
